Source: patent US8168596B2, “Use of cycloartane compounds for treating arthritis” (NuLiv Holding Inc., priority 2008, dated 2012)

What was measured:
[1] = tested on: MMP-9; test: Zymography of MMP-9 from pre-treated SW1353 cells; assay type: cell-based, human; settings: PMA-pre-treated SW1353; 0.1 μM, 24 h
Protocol: (§1) At the beginning of the experiment, the cells were pre-treated with 100 ng/mL PMA or 10 ng/mL IL-1β for 24 hours. The cells were then treated with 0.1 μM Dexamethasone, various astragaloside compounds (0.1 μM) or extracts of Astragalus membranaceous (1 μg/mL) at indicated dosages for another 24 hours. For control sample, 0.1% DMSO was used as a negative control for these experiments. The conditioned culture mediums were then centrifuged, 2-fold concentrated and collected for assay of collagens or MMPs secreted into the culture medium.
(§2) The proteolytic activities of MMPs from SW1353 cells were measured essentially as described previously (Circ Res, 1999; 85:906-911). The cells were lysed in lysis buffer (1% Triton X-100, 50 mM Tris-Cl, pH 7.4, 180 mM NaCl, 1 mM EDTA). The samples were measured for their protein concentration using the bicinchoninic acid (BCA) protein assay kit as described. Samples of concentrated conditioned medium and cell lysates were mixed with non-reducing electrophoresis loading buffer and subjected to electrophoresis under non-reducing conditions. The electrophoresis was carried out on a 10% SDS-PAGE co-polymerized with 2 mg/mL gelatin or casein (Sigma, St. Louis, Mo. USA). For zymographic analysis of pro-MMP-2 and activated MMP-2, the total 20 μg of culture medium were used for electrophoresis. Following electrophoresis, renaturation of the proteins was achieved by incubating the gels twice in 25 g/L Triton X-100 at room temperature for 10 min. Subsequently the gels were incubated in 50 mM Tris-HCl, pH 7.5 containing 0.2 M NaCl, 0.02% Brij35 and 10 mM CaCl2 at 37° C. for 18 hours. After the gels were stained with Coomassie Brilliant Blue R-250 and destained, zones of proteolytic activities became visible as transparent bands in the stained gel. In order to obtain higher sensitivity, the gels were further destained in a solution of 1% Triton X-100 (1 to 2 hours). This procedure increased the signal-to-noise ratio, allowing the visualization of faint gelatinase bands at 92 kDa, 125 kDa and greater than 200 kDa. Zymograms were read using a Molecular Dynamics (Sunnyvale, Calif., USA) computing laser densitometer with Image Quant software.

[2] = tested on: MMP-1; test: Western blot of MMP-1 in PMA- or IL-1β-pre-treated SW1353 cells (Example 6); assay type: cell-based, human; settings: 48 h
Protocol: The cells were then plated on 6-cm dishes at a density of 1×10^6 cells/dish for 24 hours prior to any treatment. At the beginning of the experiment, the cells were pre-treated with 100 ng/mL PMA or 10 ng/mL IL-1β for 24 hours. The cells were then treated 0.1 μM Dexamethasone with, various astragaloside compounds (0.1 μM) or extracts of Astragalus membranaceous (1 μg/mL) at indicated dosages for another 48 hours. For control sample, 0.1% DMSO was used as a negative control for these experiments. The conditioned culture mediums were then centrifuged, 2-fold concentrated and collected for assay of collagens or MMPs secreted into the culture medium.
Western blotting analysis was carried out on both cultured medium and cell lysates, as follows. The cells were washed and lysed in 0.2 mL of lysis buffer (1% NP-40, 50 mM Tris-HCl, pH 7.4, 180 mM NaCl, 1 mM EDTA, 1 mM PMSF, 1 mM NaF, 10 mM Na3VO4) for 30 min at 4° C. After centrifuging at 17500 g for 15 min, the supernatants of cell lysate were also collected. Protein concentration of the samples were measured using the bicinchoninic acid (BCA) protein assay kit according to the manufacturer's protocol (Pierce, Rockford, Ill., USA). Equal amount of protein samples of concentrated conditioned medium (100 μg) or cell lysate supernatants (50 μg) were mixed with an appropriate volume of 4×SDS sampling buffer and separated by 8% SDS-PAGE gel. The protein bands separated in the SDS-PAGE gel were blotted onto a polyvinylidene fluoride (PVDF) membrane. The blotted PVDF membrane was washed twice and blocked in freshly prepared Tris-buffered saline (TBS) containing 0.1% Tween-20 and 7% skim milk (TBST) for 2 hours at room temperature. The PVDF membrane was then incubated with either antibodies against collagen I and III or the housekeeping protein α-tubulin (Santa Cruz Biotechnology, Santa Cruz, Calif.) for 18 hours at 4° C. Horseradish peroxidase-conjugated anti-goat antibody was used as secondary antibody. Signals were visualized by an enhanced chemiluminescence kit (Clonetech, Palo Alto, Calif., USA) followed by exposure to X-ray films.

[3] = tested on: MMP1; test: Western blotting of MMP1 protein expression induced by IL-1β, PMA or TNF-α in SW1353 cells (Example 3); assay type: cell-based, human; settings: AS4 0.01, 0.1 or 1 μM; PMA 100 ng/mL, IL-1β 10 ng/mL, TNF-α 10 ng/mL, 24 h
Protocol: Western blotting analysis was carried out based on the following procedure. Cells were washed and lysed in 0.2 mL of lysis buffer (1% NP-40, 50 mM Tris-HCl, pH 7.4, 180 mM NaCl, 1 mM EDTA, 1 mM PMSF, 1 mM NaF, 10 mM Na3VO4) for 30 min at 4° C. After centrifugation at 17500 g for 15 min, the supernatants of cell lysate were collected. Protein concentrations of the samples were measured using the bicinchoninic acid (BCA) protein assay kit according to the manufacturer's protocol (Pierce, Rockford, Ill., USA). Equal amounts of protein samples of concentrated conditioned medium (100 μg) or cell lysate supernatants (50 μg) were mixed with an appropriate volume of 4×SDS sampling buffer and separated on a 8% SDS-PAGE gel. The protein bands separated on the SDS-PAGE gel were blotted onto a polyvinylidene fluoride (PVDF) membrane. The blotted PVDF membrane was washed twice and blocked in freshly prepared Tris-buffered saline (TBS) containing 0.1% Tween-20 and 7% skim milk (TBST) for 2 hours at room temperature. The PVDF membrane was then incubated with a primary antibody against MMP1 protein (Santa Cruz Biotechnology, Santa Cruz, Calif.) for 18 hours at 4° C. Horseradish peroxidase-conjugated anti-goat antibody was used as the secondary antibody. Signals were visualized by an enhanced chemiluminescence kit (Clonetech, Palo Alto, Calif., USA) followed by exposure to X-ray films. […]

[4] = tested on: MMP-13; test: Western blot of MMP-13 in pre-treated human chondrocytes (HCHs); assay type: cell-based; settings: IL-1β-pre-treated HCH culture medium; compounds 0.1 μM, 48 h
[5] = tested on: MMP-1; test: Zymography of MMP-1 from pre-treated SW1353 cells; assay type: cell-based, human; settings: PMA-pre-treated SW1353; 0.1 μM, 24 h
Protocol: as §1, §2

For CC(C)(O)[C@@H]1CC[C@](C)([C@H]2[C@@H](O)C[C@@]3(C)[C@@H]4C[C@H](O[C@@H]5O[C@H](CO)[C@@H](O)[C@H](O)[C@H]5O)[C@H]5C(C)(C)[C@@H](O[C@@H]6OC[C@@H](O)[C@H](O)[C@H]6O)CC[C@@]56C[C@@]46CC[C@]23C)O1 [AS4, Astragaloside IV], the “MMP-9, Zymography, relative to Ctrl 1.00” value [1] was 1.04, the “MMP-1, Western blot, relative to Ctrl 1.00” value ([2]; IL-1β-pre-treated SW1353 cell extract, compounds 0.1 μM) was 0.22 and the “MMP-1, Western blot, relative to Ctrl 1.00” value ([2]; PMA-pre-treated SW1353 cell extract, 0.1 μM) was 0.74. For the same molecule, the “level of expression of MMP1 protein with different inducers” value [3] was “inhibited”, the “MMP-13, Western blot, relative to Ctrl 1.00” value [4] was 0.55 and the “MMP-1, Zymography, relative to Ctrl 1.00” value [5] was 0.68.
